Experimental findings from patent US4012394A, “Indole derivatives” (Labaz, priority 1973, dated 1977) are described below.

Read-outs that look alike come from different tables or passages of the source. Some results are limits rather than exact numbers.

Data set [1] deals with vena cave inferior of the rat (film of fibrin). Briefly: fibrinolytic activity, procedure of TODD adapted to the vena cave inferior of the rat. The data set is classed as in vivo. Conditions: for change in vivo at 10 mg/kg: ip, 40 min, read-out: Fibrinolytic index in % (average increase in fibrinolytic effect compared with control animals); for fibrinolytic index: 100 mg/kg. The procedure:
Forschumg, 20, 358, 1970. […]
Male rats weighing 150 to 200 g. and having fasted for 24 hours were divided into two groups. The animals of one group were given the above-indicated dose of the compound to be tested. […] After 40 minutes, the treated animals were sacrificed simultaneously with the control animals, the veins immediately removed, rinsed with physiological salt solution, frozen and cut into pieces having a thickness of 20 microns. On each piece, a film of fibrin was formed by the application of a bovine fibrinogenous solution, rich in plasminogen, and of a thrombin solution.
All the preparations were then fixed with a 10% solution of neutral formol, stained with haematoxylin of Harris and covered with gelatine.
Value = 0: The film of fibrin was intact.
Value = 1: The lysis zones in the endothelium were disseminated.
Value = 2:The lysis zones were larger and more or less joined.
Value = 3:The fibrin in contact with the endothelium was almost completely decomposed.
The fibrinolytic index represents the average of the values of the reactions obtained for each incubation.

Data set [2] in a line: acute toxicity in the rat. Particulars: rat, in vivo. How it is done:
(§1) A certain number of toxicity tests were also carried out on rats and mice and in particular acute toxicity tests.

Data set [3] can be described thus: in vivo. Conditions: rat, in vivo. The procedure:
(§2) As another means of evaluating the utility of the compounds of the invention as anti-inflammatory agents in comparison with the three substances indicated above, trials were carried out on fasting rats in order to determine the degree to which the compounds studied produced gastric ulcers in the animals so treated.

The test system of data set [4] is gastric ulcers. Description: in vivo. Particulars: for irritant (ulcer-producing) action relative to Compound A: fasting rats, gastric ulcers, times as irritant as Compound A. The procedure: as §2
Data set [5] concerns carragheenin oedema. Briefly: JANSSEN test, carragheenin-induced paw oedema in the rat. Conditions: for ED50: 3 h, read-out: AD50 (amount of compound required to ensure a 50% reduction of the oedema); for anti-inflammatory activity (in words): in vivo. The format is in vivo. The procedure: The anti-inflammatory activity of the compounds of the invention was determined on the rat by means of the JANSSEN test involving the use of carragheenin as inflammatory agent.
Into the plantar aponeurosis of the back paws of a group of female rats 0.05 ml. of a 1 % suspension of carragheenin was injected one hour after the compound to be tested had been administered by oral route. The size of the paw was measured by plethysmograph both before and three hours after administration of the carragheenin. The anti-inflammatory activity was calculated as the percentage of reduction of the resulting oedema as compared with control animals which had received the same dose of carragheenin without any anti-inflammatory agent. The AD50 was taken as the amount of compound required to ensure a 50% reduction of the oedema.

Data set [6] has as its system rats. Briefly: acute toxicity in the rat. Particulars: compared with indomethacin and/or phenylbutazone. How it is done: as §1
Data set [7] is described as follows: acute toxicity in the mouse. Particulars: in vivo, seven days of observation.
Where [8] appears, read: 10 mg/kg, intraperitoneal, rat, 40 minutes.

On to `CC(C)c1c(C(=O)c2ccccn2)c2ccccc2n1CCN(C)C` [(1-β-dimethylaminoethyl-2-isopropyl-3-indolyl) (2-pyridyl) ketone], for which, in data set [1] (Rattus norvegicus), the change in vivo at 10 mg/kg was 21%. Regarding `CC(C)c1c(C(=O)c2cccnc2)c2ccccc2n1CCN(C)C` [(1-β-dimethylaminoethyl-2-isopropyl-3-indolyl) (3-pyridyl) ketone], the change in vivo at 10 mg/kg in data set [1] (Rattus norvegicus) was 24%.

Regarding `CC(C)c1c(C(=O)c2ccncc2)c2ccccc2n1CCN(C)C` [(1-β-dimethylaminoethyl-2-isopropyl-3-indolyl) (4-pyridyl) ketone], the change in vivo at 10 mg/kg in data set [1] (Rattus norvegicus) turned out to be 44%.

For the molecule `CCCc1c(C(=O)c2ccccn2)c2ccccc2n1CCN(C)C` [(1-β-dimethylaminoethyl-2-n-propyl-3-indolyl) (2-pyridyl) ketone], the change in vivo at 10 mg/kg in data set [1] (Rattus norvegicus) is 50%. As for `CN(C)CCn1c(-c2ccccc2)c(C(=O)c2ccccn2)c2ccccc21` [(1-β-dimethylaminoethyl-2-phenyl-3-indolyl) (2-pyridyl) ketone], the change in vivo at 10 mg/kg in data set [1] (Rattus norvegicus) was 50%.

Consider `CN(C)CCn1c(-c2ccccc2)c(C(=O)c2cccnc2)c2ccccc21` [(1-β-dimethylaminoethyl-2-phenyl-3-indolyl) (3-pyridyl) ketone], for which the change in vivo at 10 mg/kg in data set [1] (Rattus norvegicus) came out at 96%. The LD50 is the dose at which mortality reaches 50%. As for `CC(C)c1c(C(=O)c2cccnc2)c2ccccc2n1CCCN(C)C` [(1-γ-dimethylaminopropyl-2-isopropyl-3-indolyl) (3-pyridyl) ketone], in data set [2] (po), the LD50 was more than 2000 mg/kg. Turning to `CC(C)c1c(C(=O)c2ccncc2)c2ccccc2n1CCCN(C)C` [(1-γ-dimethylaminopropyl-2-isopropyl-3-indolyl) (4-pyridyl) ketone], the change in vivo at 10 mg/kg in data set [1] (Rattus norvegicus) is 30%. For `CCCc1c(C(=O)c2ccccn2)c2ccccc2n1CCCN(C)C` [(1-γ-dimethylaminopropyl-2-n-propyl-3-indolyl) (2-pyridyl) ketone], in data set [1] (Rattus norvegicus), the change in vivo at 10 mg/kg was found to be 66%. Regarding `CN(C)CCCn1c(-c2ccccc2)c(C(=O)c2ccccn2)c2ccccc21` [(1-γ-dimethylaminopropyl-2-phenyl-3-indolyl) (2-pyridyl) ketone], the change in vivo at 10 mg/kg in data set [1] (Rattus norvegicus) came to 46%. As for `CN(C)CCCn1c(-c2ccccc2)c(C(=O)c2cccnc2)c2ccccc21` [(1-γ-dimethylaminopropyl-2-phenyl-3-indolyl) (3-pyridyl) ketone], in data set [1] (Rattus norvegicus), the change in vivo at 10 mg/kg was determined as 46%. Same read-out and setting: the value for `CC(C)c1c(C(=O)c2ccccn2)c2ccccc2n1CCCN1CCCCC1` [(1-γ-piperidinopropyl-2-isopropyl-3-indolyl) (2-pyridyl) ketone] was 123%; that for `CC(C)c1c(C(=O)c2cccnc2)c2ccccc2n1CCCN1CCCCC1` [(1-γ-piperidinopropyl-2-isopropyl-3-indolyl) (3-pyridyl) ketone] was 18%. Take `CC(C)c1[nH]c2ccccc2c1C(=O)c1cccnc1` [(2-isopropyl-3-indolyl) (3-pyridyl) ketone, reference compound]: the change in vivo at 10 mg/kg in data set [1] (setting [8]) amounted to 5%. For the molecule `CC(C)c1[nH]c2ccccc2c1C(=O)c1ccncc1` [(2-isopropyl-3-indolyl)(4-pyridyl) ketone, reference compound], the change in vivo at 10 mg/kg in data set [1] (setting [8]) was 10%. Molecule `CCCc1[nH]c2ccccc2c1C(=O)c1ccccn1` [(2-n-propyl-3-indolyl)(2-pyridyl) ketone, reference compound] gave a fibrinolytic index in data set [1] (rat) of 2%. Consider `O=C(c1cccnc1)c1c(-c2ccccc2)[nH]c2ccccc12` [(2-phenyl-3-indolyl)(3-pyridyl) ketone, reference compound], for which, in data set [1] (rat), the fibrinolytic index stood at 20%. For `CC(=O)Oc1ccccc1C(=O)O` [Acetylsalicylic acid], the selectivity ratio in data set [3] amounted to 2. Further, the “irritant (ulcer-producing) action relative to Compound A” value in data set [4] is given as “one-and-a-half”. The ED50 in data set [5] (Rattus norvegicus, po) came out at 110 mg/kg. Moreover, the “anti-inflammatory activity (in words)” value in data set [5] (rat) is reported as “less active than Compound A”.

Consider `CC(C)c1c(C(=O)c2cccnc2)c2ccccc2n1C` [Compound A, (1-methyl-2-isopropyl-3-indolyl) (3-pyridyl) ketone], for which the figures for the LD50 in data set [2] (ip) and in data set [2] (po) were 425 mg/kg and 2400 mg/kg, respectively. Moreover, the “toxicity (in words)” value in data set [6] was “less toxic than both indomethacin and phenylbutazone”. In data set [3], the selectivity ratio is 20. Further, in data set [4] (compared with indomethacin, phenylbutazone or acetylsalicylic acid), the “distance of irritant dose from anti-inflammatory dose (in words)” value was “irritant dose is much farther removed from the anti-inflammatory dose”. Further, the LD50 at 168 h in data set [7] (ip, intraperitoneal route) turned out to be 3250 mg/kg; in data set [7] (po, intragastric route), 900 mg/kg. The ED50 in data set [5] (Rattus norvegicus, po) came out at 15 mg/kg. Consider `COc1ccc2c(c1)c(CC(=O)O)c(C)n2C(=O)c1ccc(Cl)cc1` [Indomethacin], for which the LD50 in data set [2] (po) is 22.5 mg/kg. The selectivity ratio in data set [3] was 1.3. In data set [4], the “irritant (ulcer-producing) action relative to Compound A” value was “sixty”. The ED50 in data set [5] (Rattus norvegicus, po) worked out at 4 mg/kg. Moreover, the “anti-inflammatory activity (in words)” value in data set [5] (rat) was “more powerful anti-inflammatory agent than Compound A”. With `CCCCC1C(=O)N(c2ccccc2)N(c2ccccc2)C1=O` [Phenylbutazone], the ED50 in data set [5] (oral, rat, one hour before carragheenin, oedema measured three hours after) was found to be 22 mg/kg. Besides, the “anti-inflammatory activity (in words)” value in data set [5] (rat) is “less active than Compound A”. As for `CN(C)CCn1c(-c2ccc(F)cc2)c(C(=O)c2cccnc2)c2ccccc21` [[1-β -dimethylaminoethyl-2-(4-fluoro-phenyl)-3-indolyl] (3-pyridyl) ketone], the change in vivo at 10 mg/kg in data set [1] (Rattus norvegicus) came out at 90%. As to `CN(C)CCn1c(-c2ccc(Cl)cc2)c(C(=O)c2cccnc2)c2ccccc21` [[1-β-dimethylaminoethyl-2-(4-chloro-phenyl)-3-indolyl] (3-pyridyl) ketone], in data set [1] (Rattus norvegicus), the change in vivo at 10 mg/kg was 40%. Same read-out and setting: the value for `CN(C)CCn1c(-c2ccc(Cl)cc2)c(C(=O)c2ccncc2)c2ccccc21` [[1-β-dimethylaminoethyl-2-(4-chloro-phenyl)-3-indolyl] (4-pyridyl) ketone] was 42%; that for `CN(C)CCn1c(-c2ccc(F)cc2)c(C(=O)c2ccncc2)c2ccccc21` [[1-β-dimethylaminoethyl-2-(4-fluoro-phenyl)-3-indolyl] (4-pyridyl) ketone] was 50%; that for `COc1ccc(-c2c(C(=O)c3ccccn3)c3ccccc3n2CCN(C)C)cc1` [[1-β-dimethylaminoethyl-2-(4-methoxy-phenyl)-3-indolyl] (2-pyridyl) ketone] was 45%. On to `COc1ccc(-c2c(C(=O)c3cccnc3)c3ccccc3n2CCN(C)C)cc1` [[1-β-dimethylaminoethyl-2-(4-methoxy-phenyl)-3-indolyl] (3-pyridyl) ketone], for which the change in vivo at 10 mg/kg in data set [1] (Rattus norvegicus) was 133%. Regarding `COc1ccc(-c2c(C(=O)c3ccncc3)c3ccccc3n2CCN(C)C)cc1` [[1-β-dimethylaminoethyl-2-(4-methoxy-phenyl)-3-indolyl] (4-pyridyl) ketone], the change in vivo at 10 mg/kg in data set [1] (Rattus norvegicus) was 42%. Still for that read-out and setting: the value for `O=C(c1ccncc1)c1c(-c2ccc(Cl)cc2)n(CCN2CCCCC2)c2ccccc12` [[1-β-piperidinoethyl-2-(4-chloro-phenyl)-3-indolyl] (4-pyridyl) ketone] was 50%; that for `CN(C)CCCn1c(-c2ccc(F)cc2)c(C(=O)c2cccnc2)c2ccccc21` [[1-γ-dimethylaminopropyl-2-(4-fluoro-phenyl)-3-indolyl] (3-pyridyl) ketone] was 75%. On to `CC(C)c1c(C(=O)c2ccccn2)c2ccccc2n1C` [methyl / isopropyl / 2-pyridyl, (1-methyl-2-isopropyl-3-indolyl) (2-pyridyl) ketone], for which the change in vivo at 10 mg/kg in data set [1] (setting [8]) was determined as 105%.

For `CC(C)c1c(C(=O)c2ccncc2)c2ccccc2n1C` [methyl / isopropyl / 4-pyridyl, (1-methyl-2-isopropyl-3-indolyl) (4-pyridyl) ketone], the change in vivo at 10 mg/kg in data set [1] (setting [8]) was found to be 165%. As to `CCCn1c(C(C)C)c(C(=O)c2cccnc2)c2ccccc21` [n-propyl / isopropyl / 3-pyridyl, (1-n-propyl-2-isopropyl-3-indolyl) (3-pyridyl) ketone], the change in vivo at 10 mg/kg in data set [1] (Rattus norvegicus) turned out to be 25%. Still for that read-out and setting: the value for `CC(C)c1c(C(=O)c2cccnc2)c2ccccc2n1CCN1CCCCC1` [piperidinoethyl / isopropyl / 3-pyridyl, (1-β-piperidinoethyl-2-isopropyl 3-indolyl) (3-pyridyl) ketone] was 77%.
